What was measured:
Format in all cases: cell-based, pig
ASGR1 mRNA = assay: siRNA reduction of ASGR1: transcript levels by quantitative PCR; settings: 48 hours after siRNA treatment
Description: RNA extraction was performed on cultured LSEC and tissues harvested from domestic and GTKO/hDAF pigs. Total RNA was extracted from LSEC and low-fiber tissues using the RNeasy Minikit (Qiagen, Valencia Calif.). RNA from fiber-rich tissue was isolated using the RNeasy fibrous tissue kit (Qiagen, Valencia Calif.). RNA quality was assessed using an Agilent 2100 Bioanalyzer (Biotechnology Research and Training Center IUPUI). Reverse transcription was performed using Quantitect Reverse Transcription kit (Qiagen, Valencia Calif.). Presence/absence experiments of endogenous mRNA were performed on a 9700 Applied Biosystems™ cycler. Products were run using Quantitect Sybr Green (Qiagen, Valencia Calif.). Endogenous mRNA levels were measured by real-time quantitative PCR analysis on a STEP-ONE PLUS (Applied Biosystems™, Carlsbad Calif.) real time PCR system and comparative CT analysis was performed. Gene expression assays for porcine ASGR1 and β-actin AI6RMY and SSO 3376160-u1 (Applied Biosystems™, Carlsbad Calif.) were used. […]
(§1) siRNA sense and antisense oligos were designed to the mRNA sequence of ASGR1 (FIG. 17C). […] ASGR1 transcript levels were determined by quantitative PCR. ASGR1 protein levels were analyzed.

ASGR1 protein = assay: siRNA reduction of ASGR1: protein levels by immunoblotting; settings: 48 hours after siRNA treatment
Description: LSECs were resuspended in Laemmli sample buffer with protease arrest (G-bioscience™, Maryland Heights Mo.). Samples were electrophoresed on SDS-polyacrylamide gels (SDS-PAGE). Polypeptides were transferred to membranes for immunoblot or lectin blot analysis. Membranes were blocked by incubation with 50% Odyssey blocking buffer (LI-COR Biosciences™, Lincoln Nebr.) in phosphate buffered saline (PBS) for approximately one hour. Membranes were incubated with anti-ASGR1 (Santa Cruz Biotechnologies™, Santa Cruz Calif.), anti-GAPDH (Millipore™, Billerica Mass., MAB374), anti-β-actin (Rockland Immunochemicals for Research, Gilbertsville Pa.), or anti-CD42b (Santa Cruz Biotechnologies™, SC-13467) according to the manufacturer's recommended protocol. Membranes were also incubated with ECA-biotin (EY Laboratories San Mateo Calif.) in a calcium containing buffer. Following primary antibody or lectin binding, membranes were washed. Membranes were incubated with the appropriate secondary antibody or streptavidin conjugated to either IRDye 800CW or IRDye680CW (LI-Cor Biosciences™). […] Protein bands were quantified by intensity using the LI-COR software.
as §1

porcine primary LSECs = assay: Platelet phagocytosis assay with siRNA treated LSECs; settings: 48 hours after siRNA treatment, n=3
Description: Primary LSECs were cultured in black walled-clear bottomed, cell culture treated 96-well plates (approximately 100,000 cells/well). The plated cells were incubated at 37° C. and 5% CO2 for four, five or six days as indicated. Four million CFSE-labeled platelets were added to wells in 96 well plates containing primary LSEC and media. Plates were centrifuged at 2000×g to synchronize the wells. At predetermined time points, the incubations were stopped. Duplicate wells for each time point were washed with PBS three times. After washing, the cells were incubated with 4% paraformaldehyde-PBS solution for 20 minutes to fix the cells. The wells were washed with PBS. 50 μl PBS was placed in each well. After obtaining the timepoints, the plates were read for fluorescence using a Spectra Max M2e plate reader (Molecular Devices Co.) set to read 9 different points within each well. Wells with LSECs and without CFSE-labeled platelets were used to determine the auto-fluorescence of LSECs. Data points from at least three separate porcine LSEC experiments were averaged and the standard deviation was obtained.
siRNA sense and antisense oligos were designed to the mRNA sequence of ASGR1 (FIG. 17C). […] ASGR1 transcript levels were determined by quantitative PCR. ASGR1 protein levels were analyzed. […]

LSEC = assay: High-throughput fluorescent 96-well phagocytosis assay (ELISA based fluorescent assay) with platelets and LSEC; settings: compound at 5 mg/ml, 0.5 mg/ml or none, FIG. 9 panel B
Description: A high-throughput fluorescent 96-well phagocytosis assay was performed using human and baboon platelets and LSEC. The compounds of interest asialofeutin or feutin were added to the samples. Experiments were performed with reduced calcium or in the presence of the chelating agent, EDTA.

[1] = tested on: Domestic and GTKO/hDAF LSEC cultures; assay: Inhibition of platelet phagocytosis assay: fetuin / asialofetuin, CFSE-labeled human platelets; settings: LSECs from domestic or GTKO/hDAF pigs; 0.5-20 μg/ml; FIG. 15 panel A
Description: Fetuin, a glycoprotein composed of sialic acid terminated galactose β1, −4 N-acetylglucosamine (Galβ) oligosaccharides, and asialofetuin, a derivative of fetuin lacking the terminal sialic acid saccharides and with exposed Galβ oligosaccharides were utilized to evaluate platelet binding. Domestic (n=2-5) and GTKO/hDAF (n=5) LSEC cultures were established. Cultures were incubated with 0.5, 2.5, 5, 10 or 20 μg/ml fetuin or asialofetuin. After incubations, CFSE-labeled human platelets were added to the cultures. Platelet binding and phagocytosis was measured using a spectromax plate reader. The percent of platelet binding was calculated.

Row | Substance | ASGR1 mRNA levels relative to non-specifically treated cells (siGenome) (ASGR1 mRNA; GTKO/hDAF LSECs) | ASGR1 mRNA levels relative to non-specifically treated cells (siGenome) (ASGR1 mRNA; domestic LSECs) | ASGR1 protein levels relative to non-specifically treated cells (siGenome) (ASGR1 protein; GTKO/hDAF LSECs) | ASGR1 protein levels relative to non-specifically treated cells (siGenome) (ASGR1 protein; domestic LSECs) | platelet phagocytosis compared to siGenome transfected LSECs (porcine primary LSECs; GTKO/hDAF LSECs) | platelet phagocytosis compared to siGenome transfected LSECs (porcine primary LSECs; domestic LSECs) | inhibition of binding of baboon platelets (RFI) (LSEC) | inhibition of binding of human platelets (RFI) (LSEC) | percent of human platelet binding by LSECs [1]
1 | ASGR1 siRNA: double-stranded siRNA to ASGR1 mRNA; sense strand SEQ ID NO:11, antisense strand SEQ ID NO:12 (sense CAGCAUGCAGGGAGGAAAUUU; antisense AUUUCCUCCCUGCAUGCUGUU; chemistry not given here) | 20% | 56% | 87% | 80% | 69% | 79% |  |  | 
2 | Fetuin |  |  |  |  |  |  | not feutin inhibits binding | not feutin inhibits binding | 
3 | asialofetuin |  |  |  |  |  |  | inhibits binding | inhibits binding | significantly reduced
